Values of other authors, collected in patent publication US20230172203A1, “PLANT METABOLISM PROMOTING COMPOSITIONS AND METHODS OF USE” (Panoptic Ag Solutions LLC, priority 2021, published 2023).

Test system: tea plants
Settings: exogenous application; background statement; cited from earlier work

CNC(=O)CC[C@H](N)C(=O)O [γ-glutamylmethylamide]
quality and yield of tea plants (in words): can improve the quality and yield of tea plants by increasing the number of usable leaves
